# Results: patent US11407811B2, “Fusion protein, preparation method therefor and use thereof” (JIANGSU RONGTAI BIOTECH CO., LTD., priority 2017, dated 2022)
# Experiments:
# [1] = tested on: human umbilical vein endothelial cells (HUVEC); test: Three-dimensional transwell assay, migration of HUVEC; format: cell-based; details: dose 8.0 · 10^−6 μg/mL
# Description: Human umbilical vein endothelial cells (HUVECs) were cultured with endothelial cell culture fluid containing 5% fetal bovine serum and 1×ECGS in a 5% CO2 incubator at 37° C., to a confluence of 90% or more, and then inhibitory effects of fusion protein I, protein II, protein III, protein IV, and protein V on migration of endothelial cells were detected by transwell assay, in which only endothelial cells HUVEC of passage 2 to 8 were used, and the specific operation was as follows.
# (1) 10 mg/mL Matrigel was diluted with a DMEM medium at a ratio of 1:4, coated on a transwell chamber membrane, and air-dried at room temperature.
# (2) HUVEC cells cultured to logarithmic phase were digested with 0.2% EDTA, collected, washed twice with PBS, followed by resuspended in an endothelial cell culture liquid containing 0.1% BSA, counted under a microscope, and the cell concentration was adjusted to 1×10^5 cells/mL;
# (3) Test solutions for each group were formulated and diluted to 100 μL with a cell culture liquid containing 0.1% BSA;
# Groups were divided as follows:
# Blank control group: a cell culture liquid containing no drug;
# Endostar group: 5 mg/mL Endostar solution diluted to a predetermined concentration with a cell culture liquid containing no drug; […]
# (4) The cells were inoculated into a transwell chamber at 100 μL per well, and test solutions for each group were added to the chamber. To a 24-well plate, 0.6 mL of endothelial cell culture liquid containing 5% fetal bovine serum and 1×ECGS was added to stimulate cell migration, and incubated at 5% CO2 for 24 h at 37° C.
# (5) The culture liquid in the well was discarded. The cells were fixed with 90% alcohol at room temperature for 30 min, stained with 0.1% crystal violet for 10 min at room temperature, and rinsed with water. Un-migrated cells in the upper layer were gently wiped off by a cotton swab. The observation was carried out under microscope and four fields of view were selected for taking photos and counting. The migration inhibition (MI) was calculated according to the formula: […]
# where Ntest is the migration cell number in the test group, and Ncontrol is the migration cell number in the blank control group.
# The test was repeated 3 times independently. The results obtained from the test were calculated as mean±SD, and statistical t-test was performed. P<0.05 was considered as a significant difference, and P<0.01 was considered as an extremely significant difference.
# [2] = tested on: adjuvant arthritis in rat; test: Chronic inflammation of adjuvant arthritis in rat; format: in vivo; parameters: key to Clinical score Whole body: sum of hind/fore foot, ear, nose, tail scores; full score 8
# Description: 80 SPF SD rats were randomly divided into 8 groups. Rats in each group were lightly anesthetized with ether. Then, 0.1 mL of complete Freund's adjuvant containing inactivated Mycobacterium tuberculosis was injected subcutaneously into the left hind foot of the rats. Primary arthritis occurred in the left hind foot of the rat, and at about 13 days post-modeling, secondary arthritis occurred in the right hind foot. A blank control group was injected with an equal volume of physiological saline. The drug was administered 13 days after modeling. A methotrexate group was administered by injection every 5 days for 15 days, 4 times in total; the fusion protein I, protein II, protein III, protein IV, and protein V at high, medium and low doses (128 mg/kg, 32 mg/kg, 8 mg/kg) were administered by injection every 5 days for 15 days.
# Using a foot volume measuring method, a marker was made with a fat-soluble marker at the left and right posterior ankle joint of each rat, and the left and right hind feet of the animal were respectively immersed in the volume measuring device. The immersion depth was bounded by the marker, and the reading value at the scale pipette of the device was the initial volume of the animal's left and right hind feet.
# The day of modeling was considered as the 0th day and recorded as d0. The volume of the left hind foot (modeling foot) was measured from the first day d1 after modeling every 2 days. When the swelling occurred (i.e., secondary arthritis occurred) at the contralateral non-inflammatory foot (right hind foot), the administration was started. The volume of the left and right hind feet was measured every 2 days, and the degree of primary and secondary toe swelling was determined, which was calculated as follows:
# Primary toe swelling (mL)=left hind foot volume on the day of measurement-initial volume of left hind foot
# Secondary toe swelling (mL)=right hind foot volume on the day of measurement-initial volume of right hind foot 2. Clinical score
# Systemic score: the systemic score was taken every 2 days after the onset of secondary inflammation.
# Hind foot: no swelling=0 score, one hind foot swelling=1 score, two hind feet swelling=2 scores;
# Forefoot: no swelling=0 score, one forefoot swelling=1 score, two forefeet swelling=2 scores;
# Ear: no redness and nodules=0 score, redness or nodules in one ear=1 score, redness and nodules in both ears=2 scores;
# Nose: no swelling=0 score, obvious swelling=1 score;
# Tail: no nodules=0 score, with nodules=1 score; full score was 8 scores.
# Arthritis index score: the arthritis index score was performed every 2 days after the onset of secondary inflammation.
# The initial body weight of each group of rats was weighed before modeling. The body weight was measured every 2 days from d1 after modeling, from which the initial body weight was subtracted to obtain the weight gain of each group of rats.
# human glioma U87 = test: MTT assay, proliferation of human glioma U87; format: cell-based; details: dose 5 μg/mL
# Description: (§1) The MTT assay was used to detect the inhibitory effect of the integrin blocker fusion protein obtained in Example 1 on the proliferation of various tumor cells, including melanoma cell B16F10, gastric cancer cell MGC-803, lung cancer cell A549, liver cancer cell Hep-G2, breast cancer cell MDA-MB-231, colon cancer cell HCT-116, human glioma U87, and cervical cancer cell Hela.
# (§2) The tumor cells were cultured in a 5% CO2 incubator at 37° C. to a density of 90% or more, and collected by trypsinization. The cells were resuspended in the culture liquid and counted under a microscope. The cell concentration was adjusted to 3.0×10^4 cells/mL. The cell suspension was inoculated into a 96-well plate at 100 μL per well and cultured overnight in a 5% CO2 incubator at 37° C. […] After the cells were fully adhered, each dilution was added to a 96-well plate at 100 μL per well, respectively. […] 20 μL of 5 mg/mL MTT was added to each well of a 96-well plate, and incubation was continued for 4 hours. The medium was aspirated and 100 μL of DMSO per well were added to dissolve. The absorbance was measured at 570 nm with a microplate reader with a reference wavelength of 630 nm, and the proliferation inhibition (PI) was calculated. The formula is as follows: […]
# (§3) where Ntest is the OD value of the test group and Ncontrol is the OD value of the blank control group.
# (§4) The test was repeated 5 times independently. The results obtained from the test were calculated as mean±SD, and statistical t-test was performed. P<0.05 was considered as a significant difference, and P<0.01 was considered as an extremely significant difference.
# [3] = tested on: gastric cancer cell MGC-803; test: MTT assay, proliferation of gastric cancer cell MGC-803; format: cell-based; details: dose 5 μg/mL
# Description: as §1, §2, §3, §4
# [4] = tested on: colon cancer cells HCT-116; test: MTT assay, proliferation of colon cancer cell HCT-116; format: cell-based; details: dose 5 μg/mL
# Description: as §1, §2, §3, §4
# [5] = tested on: melanoma cell line B16F10; test: MTT assay, proliferation of melanoma cell B16F10; format: cell-based; details: dose 5 μg/mL
# Description: as §1, §2, §3, §4
# [6] = tested on: cervical cancer cell Hela; test: MTT assay, proliferation of cervical cancer cell Hela; format: cell-based; details: dose 5 μg/mL
# Description: as §1, §2, §3, §4
# [7] = tested on: breast cancer cell MDA-MB-231; test: MTT assay, proliferation of breast cancer cell MDA-MB-231; format: cell-based; details: dose 5 μg/mL
# Description: as §1, §2, §3, §4
# liver cancer cell Hep-G2 = test: MTT assay, proliferation of liver cancer cell Hep-G2; format: cell-based; details: dose 5 μg/mL
# Description: as §1, §2, §3, §4
# [8] = tested on: human retinal vascular endothelial cell (HRCEC); test: MTT assay, proliferation of human retinal vascular endothelial cell (HRCEC); format: cell-based; details: 5 μg/mL (positive control), 48 hours
# Description: The activity of the integrin blocker polypeptide to inhibit proliferation of human retinal vascular endothelial cells was examined by MTT assay. HRCEC cells were cultured in a 5% CO2 incubator at 37° C. to a density of 90% or more, and then collected by trypsinization. The cells were resuspended in the culture liquid and counted under a microscope. The cell concentration was adjusted to 3.0×10^4 cells/mL. The cell suspension was inoculated into a 96-well plate at 100 μL per well and cultured in a 5% CO2 incubator at 37° C. overnight. […] After the cells were fully adhered, each dilution was added to a 96-well plate at 100 μL per well, respectively. […] 20 μL of 5 mg/mL MTT was added to each well of a 96-well plate, and incubation was continued for 4 hours. The medium was aspirated and 100 μL of DMSO was added per well for dissolution. The absorbance was measured at 570 nm with a microplate reader with a reference wavelength of 630 nm, and the proliferation inhibition (PI) was calculated. The formula was as follows: […]
# as §3
# The test was repeated 5 times independently. The results obtained from the test were calculated as mean±SD, and statistical t-test was performed. P<0.05 was considered as significant difference, and P<0.01 was considered as extremely significant difference.
# lung cancer cell A549 = test: MTT assay, proliferation of lung cancer cell A549; format: cell-based; details: dose 5 μg/mL
# Description: as §1, §2, §3, §4
# [9] = tested on: xylene-induced ear swelling in mice; test: Xylene-induced ear swelling in mice; format: in vivo; details: 200 mg/kg (positive control)
# Description: 80 Kunming mice were divided into 8 groups with 10 mice for each group and numbered. A physiological saline group was used as a blank control group, an aspirin group (200 mg/kg) was used as a positive control group, and fusion protein I, protein II, protein III, protein IV and protein V at high, medium and low doses (128, 32, 8 mg/kg) were used as experimental groups. Mice were administered once by injection, while EDSM needed to be administered twice a day for 5 consecutive days. The blank control group was given an equal volume of physiological saline. After the fifth day, 0.05 mL of xylene was applied to both sides of the right ears of the mice to induce inflammation, and the left ears were not applied and were normal ears. After 2 h, the mice were sacrificed by dislocation, and the ears were cut along the auricle. Ear pieces were taken with a puncher and weighed, and the swelling degree and swelling rate were calculated. Swelling degree=right ear piece weight-left ear piece weight, swelling rate=(swelling degree/left ear piece weight)×100%.
structure (smiles),measurement,setting,value
"CCN(CC)CCNC(=O)c1c(C)[nH]c(/C=C2\C(=O)Nc3ccc(F)cc32)c1C [Sunitinib, reference compound]",MI (%),[1],82.13%
same,Migration cell number,[1],449.0 ± 153.86
"CN(Cc1cnc2nc(N)nc(N)c2n1)c1ccc(C(=O)N[C@@H](CCC(=O)O)C(=O)O)cc1 [methotrexate, reference compound]",Weight gain,[2]; 1 mg/kg (positive drug),47.32 ± 17.20 g
same,Clinical score Whole body,"[2]; 1 mg/kg (positive drug), full score 8",1.31 ± 0.17
same,Foot swelling degree Left,"[2]; 1 mg/kg (positive drug), left hind foot (primary inflammation)",1.19 ± 0.20 mL
same,Clinical score Arthritis index,"[2]; 1 mg/kg (positive drug), maximum score 16",2.00 ± 0.54
same,Foot swelling degree Right,"[2]; 1 mg/kg (positive drug), right foot (secondary inflammation)",1.22 ± 0.13 mL
same,therapeutic effect on primary arthritis (primary toe swelling degree),"[2]; methotrexate group, injection every 5 days for 15 days",the best effect
"CC(=O)O[C@H]1C(=O)[C@@]2(C)[C@H]([C@H](OC(=O)c3ccccc3)[C@]3(O)C[C@H](OC(=O)[C@H](O)[C@@H](NC(=O)c4ccccc4)c4ccccc4)C(C)=C1C3(C)C)[C@]1(OC(C)=O)CO[C@@H]1C[C@@H]2O [Taxol, reference compound]",A570 nm/A630 nm,human glioma U87,0.2177 ± 0.0277
same,PI (%),human glioma U87,68.90%
same,A570 nm/A630 nm,[3],0.6011 ± 0.0148
same,PI (%),[3],50.81%
same,A570 nm/A630 nm,[4],0.4103 ± 0.0287
same,PI (%),[4],53.39%
same,A570 nm/A630 nm,[5],0.5996 ± 0.0139
same,PI (%),[5],52.15%
same,A570 nm/A630 nm,[6],0.2114 ± 0.0275
same,PI (%),[6],73.55%
same,A570 nm/A630 nm,[7],0.4156 ± 0.0287
same,A570 nm/A630 nm,liver cancer cell Hep-G2,0.3258
same,PI (%),liver cancer cell Hep-G2,52.42%
same,A570 nm/A630 nm,[8],0.2387 ± 0.0257
same,PI,[8],82.28%
same,A570 nm/A630 nm,lung cancer cell A549,0.4269
same,PI (%),lung cancer cell A549,55.93%
"CC(=O)Oc1ccccc1C(=O)O [aspirin, reference compound]",Swelling degree,"[9]; 2 h after xylene, mice",3.12 ± 0.34 mg
same,PI,[9]; ear swelling vs control,53.08%
